# Data from paper PMC10712727, “Safety, Tolerability, and Pharmacokinetics of Senaparib, a Novel PARP1/2 Inhibitor, in Chinese Patients With Advanced Solid Tumors: A Phase I Trial” (The Oncologist, 2023).
# System: patients with advanced solid tumors
# Assay: Safety: treatment-emergent and senaparib-related adverse events graded per NCI CTCAE v4.03
# Assay type: in vivo
# Description: This phase I, open-label, multicenter, dose-escalation, and dose-expansion study was conducted at three national clinical institutions in China. […] At baseline, all patients enrolled in the dose-escalation phase had to have at least one evaluable lesion, and those in the dose-expansion period had to have at least one measurable lesion, according to Response Evaluation Criteria in Solid Tumors version 1.1 (RECIST v1.1).[16] Entry to the dose-expansion cohort required the presence of a BRCA mutation, with the exception of patients with ovarian carcinoma, fallopian tube carcinoma, and primary peritoneal carcinoma. Full study eligibility criteria are provided in Supplementary Table S1.
# Dose escalation was conducted using a modified Fibonacci 3 + 3 method (Supplementary Fig. S1).[17] Patients were administered oral senaparib from a planned starting dose of 2 mg once daily (QD), with preliminary dose escalation to 120 mg via nine dose groups, in order of their entry into the study. At a given dose level, each patient received a single dose of senaparib followed by a 7-day washout period. They then entered a continuous dosing period to confirm the safety and PK profile, in which they received senaparib QD from day 1 to day 21 of each 3-week cycle. Progression to the next higher dose required approval from the Data Safety Monitoring Committee (DSMC) upon review of the safety and PK data of the previous dose. A 50-mg twice-daily (BID) dosing group was added (planned enrollment, n = 6 patients) based on a DSMC review of the safety, PK, and efficacy analysis of the completed QD dose groups in the phase I clinical trial of senaparib dose escalation in Australia (NCT03507543), which commenced prior to the start of this trial.
# The dose-expansion period included 3 populations: dose groups in which at least one patient achieved complete response (CR) or partial response (PR) per RECIST v1.1[16] and 1 dose group higher (evaluated for safety), as well as the dose group at the maximum tolerated dose (MTD)/recommended phase II dose (RP2D). Each of these groups included those patients in the respective dose-escalation group plus a planned additional 10 patients (approximately 20 patients in the MTD/RP2D group) with BRCA^mut+ solid tumors (ovarian, breast, or prostate cancer were preferred, and ovarian cancer could be BRCA wild type). Patients received senaparib monotherapy orally QD or BID (50-mg dose only) over each 3-week cycle until disease progression or unacceptable toxicity.
# DLTs were predefined toxicities (Supplementary Table S2) recorded over the 7 days following the single-dose administration of senaparib and during the first treatment cycle (day 1-day 21) for each dose group in the dose-escalation period only. The MTD was defined as the maximum dose at which ≤1/6 patients experienced a DLT. Senaparib PK parameters were derived from blood samples collected from patients after the single administration, and at regular intervals during the first cycle of the dose-escalation and dose-expansion periods. Plasma concentrations of senaparib were determined using high-performance liquid chromatography-tandem mass spectrometry. Tumor response was assessed every 6 weeks per RECIST v1.1,[16] recording objective response rate (ORR), disease control rate (DCR), duration of response (DOR), and progression-free survival (PFS) by dose level for all patients and for those harboring BRCA^mut+ tumors.
structure (smiles),measurement,setting,value
O=C(c1cc(Cn2c(=O)[nH]c(=O)c3c(F)cccc32)ccc1F)N1CCN(c2ncccn2)CC1 [Senaparib],"Appetite decreased TRAE, All",80 mg QD n = 9,3 (33.3) n (%)
same,"Appetite decreased TRAE, Gr≥3",80 mg QD n = 9,0 n (%)
same,"Asthenia TRAE, All",80 mg QD n = 9,2 (22.2) n (%)
same,"Asthenia TRAE, Gr≥3",80 mg QD n = 9,0 n (%)
same,"Blood bilirubin increased TRAE, All",80 mg QD n = 9,2 (22.2) n (%)
same,"Blood bilirubin increased TRAE, Gr≥3",80 mg QD n = 9,0 n (%)
same,"Blood creatinine increased TRAE, All",80 mg QD n = 9,2 (22.2) n (%)
same,"Blood creatinine increased TRAE, Gr≥3",80 mg QD n = 9,0 n (%)
same,"Hypokalemia TRAE, All",80 mg QD n = 9,3 (33.3) n (%)
same,"Nausea TRAE, All",80 mg QD n = 9,4 (44.4) n (%)
same,"Nausea TRAE, Gr≥3",80 mg QD n = 9,0 n (%)
same,"Neutrophil count decreased TRAE, All",80 mg QD n = 9,4 (44.4) n (%)
same,"Neutrophil count decreased TRAE, Gr≥3",80 mg QD n = 9,1 (11.1) n (%)
same,"Platelet count decreased TRAE, All",80 mg QD n = 9,4 (44.4) n (%)
same,"Platelet count decreased TRAE, Gr≥3",80 mg QD n = 9,2 (22.2) n (%)
same,"SAEs, events",80 mg QD n = 9,5 n ev
same,"SAEs, patients",80 mg QD n = 9,5 (55.6) n (%)
same,"TEAE Grade ≥3, events",80 mg QD n = 9,12 n ev
same,"TEAE Grade ≥3, patients",80 mg QD n = 9,6 (66.7) n (%)
same,"TEAEs leading to death, events",80 mg QD n = 9,1 n ev
same,"TEAEs leading to death, patients",80 mg QD n = 9,1 (11.1) n (%)
same,"TEAEs leading to dose discontinuation, events",80 mg QD n = 9,4 n ev
same,"TEAEs leading to dose discontinuation, patients",80 mg QD n = 9,1 (11.1) n (%)
same,"TEAEs leading to dose interruption, events",80 mg QD n = 9,9 n ev
same,"TEAEs leading to dose interruption, patients",80 mg QD n = 9,4 (44.4) n (%)
same,"TEAEs leading to dose reduction, events",80 mg QD n = 9,3 n ev
same,"TEAEs leading to dose reduction, patients",80 mg QD n = 9,3 (33.3) n (%)
same,"TRAEs Grade ≥3, events",80 mg QD n = 9,10 n ev
same,"TRAEs Grade ≥3, patients",80 mg QD n = 9,5 (55.6) n (%)
same,"TRAEs, events",80 mg QD n = 9,109 n ev
same,"TRAEs, patients",80 mg QD n = 9,9 (100) n (%)
same,"Vomiting TRAE, All",80 mg QD n = 9,2 (22.2) n (%)
same,"Vomiting TRAE, Gr≥3",80 mg QD n = 9,1 (11.1) n (%)
same,"WBC decreased TRAE, All",80 mg QD n = 9,5 (55.6) n (%)
same,"WBC decreased TRAE, Gr≥3",80 mg QD n = 9,1 (11.1) n (%)
same,"ALT increased TRAE, All",100 mg QD n = 20,5 (25.0) n (%)
same,"ALT increased TRAE, Gr≥3",100 mg QD n = 20,0 n (%)
same,"AST increased TRAE, All",100 mg QD n = 20,4 (20.0) n (%)
same,"AST increased TRAE, Gr≥3",100 mg QD n = 20,1 (5.0) n (%)
same,"Anemia TRAE, All",100 mg QD n = 20,11 (55.0) n (%)
same,"Anemia TRAE, Gr≥3",100 mg QD n = 20,4 (20.0) n (%)
same,"Any TEAE, All",100 mg QD n = 20,20 (100) n (%)
same,"Any TEAE, Gr≥3",100 mg QD n = 20,7 (35.0) n (%)
same,"Any TEAE, events",100 mg QD n = 20,158 n ev
same,"Any TEAE, patients",100 mg QD n = 20,20 (100) n (%)
same,"Any TRAE, All",100 mg QD n = 20,20 (100) n (%)
same,"Any TRAE, Gr≥3",100 mg QD n = 20,7 (35.0) n (%)
same,"Appetite decreased TRAE, All",100 mg QD n = 20,5 (25.0) n (%)
same,"Appetite decreased TRAE, Gr≥3",100 mg QD n = 20,0 n (%)
same,"Asthenia TRAE, All",100 mg QD n = 20,5 (25.0) n (%)
same,"Asthenia TRAE, Gr≥3",100 mg QD n = 20,0 n (%)
same,"Blood bilirubin increased TRAE, All",100 mg QD n = 20,3 (15.0) n (%)
same,"Blood bilirubin increased TRAE, Gr≥3",100 mg QD n = 20,0 n (%)
same,"Blood creatinine increased TRAE, All",100 mg QD n = 20,2 (10.0) n (%)
same,"Blood creatinine increased TRAE, Gr≥3",100 mg QD n = 20,0 n (%)
same,"Hypokalemia TRAE, All",100 mg QD n = 20,0 n (%)
same,"Hypokalemia TRAE, Gr≥3",100 mg QD n = 20,0 n (%)
same,"Nausea TRAE, All",100 mg QD n = 20,4 (20.0) n (%)
same,"Nausea TRAE, Gr≥3",100 mg QD n = 20,0 n (%)
same,"Neutrophil count decreased TRAE, All",100 mg QD n = 20,5 (25.0) n (%)
same,"Neutrophil count decreased TRAE, Gr≥3",100 mg QD n = 20,2 (10.0) n (%)
same,"Platelet count decreased TRAE, All",100 mg QD n = 20,6 (30.0) n (%)
same,"Platelet count decreased TRAE, Gr≥3",100 mg QD n = 20,1 (5.0) n (%)
same,"SAEs, events",100 mg QD n = 20,1 n ev
same,"SAEs, patients",100 mg QD n = 20,1 (5.0) n (%)
same,"TEAE Grade ≥3, events",100 mg QD n = 20,9 n ev
same,"TEAE Grade ≥3, patients",100 mg QD n = 20,7 (35.0) n (%)
same,"TEAEs leading to death, events",100 mg QD n = 20,0 n ev
same,"TEAEs leading to death, patients",100 mg QD n = 20,0 n (%)
same,"TEAEs leading to dose discontinuation, events",100 mg QD n = 20,1 n ev
same,"TEAEs leading to dose discontinuation, patients",100 mg QD n = 20,1 (5.0) n (%)
same,"TEAEs leading to dose interruption, events",100 mg QD n = 20,8 n ev
same,"TEAEs leading to dose interruption, patients",100 mg QD n = 20,6 (30.0) n (%)
same,"TEAEs leading to dose reduction, events",100 mg QD n = 20,6 n ev
same,"TEAEs leading to dose reduction, patients",100 mg QD n = 20,4 (20.0) n (%)
same,"TRAEs Grade ≥3, events",100 mg QD n = 20,9 n ev
same,"TRAEs Grade ≥3, patients",100 mg QD n = 20,7 (35.0) n (%)
same,"TRAEs, events",100 mg QD n = 20,144 n ev
same,"TRAEs, patients",100 mg QD n = 20,20 (100) n (%)
same,"Vomiting TRAE, All",100 mg QD n = 20,5 (25.0) n (%)
same,"Vomiting TRAE, Gr≥3",100 mg QD n = 20,0 n (%)
same,"WBC decreased TRAE, All",100 mg QD n = 20,9 (45.0) n (%)
same,"WBC decreased TRAE, Gr≥3",100 mg QD n = 20,1 (5.0) n (%)
same,"ALT increased TRAE, All",120 mg QD n = 4,2 (50.0) n (%)
same,"ALT increased TRAE, Gr≥3",120 mg QD n = 4,1 (25.0) n (%)
same,"AST increased TRAE, All",120 mg QD n = 4,2 (50.0) n (%)
same,"AST increased TRAE, Gr≥3",120 mg QD n = 4,0 n (%)
same,"Anemia TRAE, All",120 mg QD n = 4,3 (75.0) n (%)
same,"Anemia TRAE, Gr≥3",120 mg QD n = 4,1 (25.0) n (%)
same,"Any TEAE, All",120 mg QD n = 4,4 (100) n (%)
same,"Any TEAE, Gr≥3",120 mg QD n = 4,3 (75.0) n (%)
same,"Any TEAE, events",120 mg QD n = 4,52 n ev
same,"Any TEAE, patients",120 mg QD n = 4,4 (100) n (%)
same,"Any TRAE, All",120 mg QD n = 4,4 (100) n (%)
same,"Any TRAE, Gr≥3",120 mg QD n = 4,3 (75.0) n (%)
same,"Appetite decreased TRAE, All",120 mg QD n = 4,1 (25.0) n (%)
same,"Appetite decreased TRAE, Gr≥3",120 mg QD n = 4,0 n (%)
same,"Asthenia TRAE, All",120 mg QD n = 4,2 (50.0) n (%)
same,"Asthenia TRAE, Gr≥3",120 mg QD n = 4,0 n (%)
same,"Blood bilirubin increased TRAE, All",120 mg QD n = 4,2 (50.0) n (%)
same,"Blood bilirubin increased TRAE, Gr≥3",120 mg QD n = 4,1 (25.0) n (%)
same,"Blood creatinine increased TRAE, All",120 mg QD n = 4,1 (25.0) n (%)
same,"Blood creatinine increased TRAE, Gr≥3",120 mg QD n = 4,0 n (%)
same,"Hypokalemia TRAE, All",120 mg QD n = 4,0 n (%)
same,"Hypokalemia TRAE, Gr≥3",120 mg QD n = 4,0 n (%)
same,"Nausea TRAE, All",120 mg QD n = 4,1 (25.0) n (%)
same,"Nausea TRAE, Gr≥3",120 mg QD n = 4,0 n (%)
same,"Neutrophil count decreased TRAE, All",120 mg QD n = 4,1 (25.0) n (%)
same,"Neutrophil count decreased TRAE, Gr≥3",120 mg QD n = 4,0 n (%)
same,"Platelet count decreased TRAE, All",120 mg QD n = 4,1 (25.0) n (%)
same,"Platelet count decreased TRAE, Gr≥3",120 mg QD n = 4,0 n (%)
same,"SAEs, events",120 mg QD n = 4,1 n ev
same,"SAEs, patients",120 mg QD n = 4,1 (25.0) n (%)
same,"TEAE Grade ≥3, events",120 mg QD n = 4,6 n ev
same,"TEAE Grade ≥3, patients",120 mg QD n = 4,3 (75.0) n (%)
same,"TEAEs leading to death, events",120 mg QD n = 4,0 n ev
